Test system: hESC-derived retinal progenitor cells
Assay: Differentiation of hESC-derived retinal progenitor cells into photoreceptor cells with substitutes for Wnt3a or Shh; positive rates of retinal cell markers by immunochemical staining
Type: cell-based, human
Conditions: Mean ± S.E.M., sample size 3
Procedure: The eye field precursors (floating aggregates) were cultured in 8-well poly-D-lysine/laminin-coated slides (BD Biosciences, Bedford, Mass.) under the same conditions that were used for differentiation into the retinal progenitor cells, the neural retinal progenitor cells, the photoreceptor cell precursors and the photoreceptor cells.
After being blocked for 90 min, the slides in each differentiation step were incubated overnight at 4° C. with the following antibodies specific for cells of each differentiation step: rabbit-Blue-opsin (1:500, Chemicon), sheep-Chx10 (1:100, Chemicon), rabbit-Crx (1:200, Santa Cruz Biotechnology, Santa Cruz, Calif., USA), rabbit-GFAP (1:200, Invitrogen), mouse-human specific mitochondria (1:50, Chemicon), rabbit-human specific mitochondria (1:200, Chemicon), mouse-Islet1 (1:10, Developmental Studies Hydroma Bank, DSHB; Iowa City, Iowa, USA), mouse-Ki67 (1:100, Vector Laboratories, Peterborough, England), mouse-Mitf (1:1,000, abcam, Cambridge, Mass., USA), mouse-nestin (1:250, BD Sciences), rabbit-neurofilament-200 (1:1,000, Sigma-Aldrich), rabbit-Otx2 (1:100, abcam), rabbit-Pax2 (1:250, abcam), mouse-Pax6 (1:2, DSHB), mouse-peripherin2 (1:500, GenScript, Piscataway, N.J., USA), rabbit-Rax (1:250, abcam), rabbit-recoverin (1:1,000, Chemicon), retinal pigment epithelium 65 (RPE65, 1:100, Chemicon), rabbit-rhodopsin (1:500, Sigma-Aldrich), mouse-rhodopsin (1:500, Ret-P1, Lab Vision, Fremont, Calif., USA), mouse-rhodopsin (1:2,000, Ret-P1, Sigma-Aldrich), mouse-rom1 (1:50, ABR-Affinity Bioreagents, Golden, Colo., USA), rabbit-PDE6 beta (1:100, abcam), rabbit-phosducin (1:500, Santa Cruz Biotechnology), mouse-PKC-alpha (1:500, Sigma-Aldrich), mouse-Prox1 (1:2,000, Chemicon), mouse-Sox2 (1:250, R&D Systems), rabbit-synaptophysin (1:2,000, Santa Cruz Biotechnology), and rabbit-ZO-1 (1:100, Zymed-Invitrogen).
The cells cultured on the slides in each step were washed three times for 5 min with PBS and incubated at room temperature for 2 hrs with species-specific secondary antibody conjugated with Cy3 (1:800, Jackson Immunoresearch Laboratory) or Alexa488 (1:500, Invitrogen). A standard material suitable for the primary and the secondary antibody was used to examine non-specific staining or interaction between the antibodies. Afterwards, the cells were washed three times for 5 min with PBS, counterstained with DAPI (4,6-diamidino-2 phenylindole) and mounted in Vectashield (Vector Laboratories), followed by visualization under an epifluorescence microscope (Nikon Eclipse, E800, Tokyo, Japan) and a confocal microscope (Leica, Leica Microsystems Inc, Bannockburn, Ill., USA or Zeiss LSM510, Carl Zeiss, Inc, Thornwood, N.Y., USA).
500 cells were counted from 20 microscopic fields randomly selected at 200 magnification and evaluated for positive responses to each antibody. Positive responses to antibodies were determined after at least three evaluations. […] All data were represented as mean±standard error of the mean (S.E.M) with a statistical significance of p<0.05.

Molecule: O=C1Nc2cc(Br)ccc2/C1=C1/Nc2ccccc2/C1=N\O [BIO, 6-bromoindirubin-3′-oxime, reference compound]
- Positive rate of Crx (2 uM instead of Wnt3a): 65.8(±1.0) %
- Positive rate of Ki67 (2 uM instead of Wnt3a): 17.2(±0.6) %
- Positive rate of Pax6 (2 uM instead of Wnt3a): 92.8(±1.0) %
- Positive rate of Rom (2 uM instead of Wnt3a): 60.3(±0.9) %
- Positive rate of b-opsin (2 uM instead of Wnt3a): 77.5(±1.8) %
- Positive rate of peripherin2 (2 uM instead of Wnt3a): 33.9(±0.1) %
- Positive rate of recoverin (2 uM instead of Wnt3a): 77.1(±0.8) %
- Positive rate of rhodopsin (2 uM instead of Wnt3a): 71.5(±1.2) %

Molecule: [Cl-].[Li+] [LiCl, reference compound]
- Positive rate of recoverin (2.5 mM instead of Wnt3a): 64.1(±2.9) %
- Positive rate of rhodopsin (2.5 mM instead of Wnt3a): 56.2(±1.7) %
- Positive rate of Crx (5 mM instead of Wnt3a): 5.0(±1.7) %
- Positive rate of Ki67 (5 mM instead of Wnt3a): 33.3(±2.2) %
- Positive rate of peripherin2 (5 mM instead of Wnt3a): 1.5(±0.9) %
- Positive rate of recoverin (5 mM instead of Wnt3a): 78.9(±4.4) %
- Positive rate of rhodopsin (5 mM instead of Wnt3a): 68.5(±2.2) %

Molecule: O=C1NC(=O)C(c2ccccc2[N+](=O)[O-])=C1Nc1ccc(O)c(Cl)c1 [SB415286, reference compound]
- Positive rate of Crx (30 uM instead of Wnt3a): 53.7(±2.7) %
- Positive rate of Ki67 (30 uM instead of Wnt3a): 13.3(±1.2) %
- Positive rate of Pax6 (30 uM instead of Wnt3a): 89.1(±0.6) %
- Positive rate of Rom (30 uM instead of Wnt3a): 59.5(±0.7) %
- Positive rate of b-opsin (30 uM instead of Wnt3a): 53.7(±2.7) %
- Positive rate of peripherin2 (30 uM instead of Wnt3a): 9.1(±0.6) %
- Positive rate of recoverin (30 uM instead of Wnt3a): 70.0(±0.6) %
- Positive rate of rhodopsin (30 uM instead of Wnt3a): 69.3(±0.5) %

Molecule: c1ccc2c(Oc3nc(Nc4ccc(N5CCOCC5)cc4)c4ncn(C5CCCCC5)c4n3)cccc2c1 [purmorphamine, reference compound]
- Positive rate of Crx (1 uM instead of Shh): 71.6(±0.8) %
- Positive rate of Ki67 (1 uM instead of Shh): 24.3(±0.5) %
- Positive rate of peripherin2 (1 uM instead of Shh): 41.5(±1.2) %
- Positive rate of recoverin (1 uM instead of Shh): 76.5(±0.9) %
- Positive rate of rhodopsin (1 uM instead of Shh): 73.5(±1.2) %

Molecule: Norrin: recombinant Norrin (R&D Systems), activator of the Wnt pathway, binds to Frizzled4 receptor
- Positive rate of Crx (50 ng/ml instead of Wnt3a): 39.3(±0.8) %
- Positive rate of Ki67 (50 ng/ml instead of Wnt3a): 42.2(±6.8) %
- Positive rate of Rom (50 ng/ml instead of Wnt3a): 69.5(±2.7) %
- Positive rate of b-opsin (50 ng/ml instead of Wnt3a): 71.1(±0.6) %
- Positive rate of peripherin2 (50 ng/ml instead of Wnt3a): 24.9(±4.5) %
- Positive rate of recoverin (50 ng/ml instead of Wnt3a): 85.0(±7.2) %
- Positive rate of rhodopsin (50 ng/ml instead of Wnt3a): 82.9(±7.1) %

B1: Wnt11: recombinant Wnt11 (R&D Systems), Wnt signaling pathway activator used instead of Wnt3a (protein, UniProt O96014 25-354, looked up)
Protein Wnt-11: IKWLALSKTPSALALNQTQHCKQLEGLVSAQVQLCRSNLELMHTVVHAAREVMKACRRAFADMRWNCSSIELAPNYLLDLERGTRESAFVYALSAAAISHAIARACTSGDLPGCSCGPVPGEPPGPGNRWGGCADNLSYGLLMGAKFSDAPMKVKKTGSQANKLMRLHNSEVGRQALRASLEMKCKCHGVSGSCSIRTCWKGLQELQDVAADLKTRYLSATKVVHRPMGTRKHLVPKDLDIRPVKDSELVYLQSSPDFCMKNEKVGSHGTQDRQCNKTSNGSDSCDLMCCGRGYNPYTDRVVERCHCKYHWCCYVTCRRCERTVERYVCK
- Positive rate of Crx (50 ng/ml instead of Wnt3a): 65.9(±5.8) %
- Positive rate of Ki67 (50 ng/ml instead of Wnt3a): 40.1(±5.2) %
- Positive rate of Rom (50 ng/ml instead of Wnt3a): 50.2(±7.4) %
- Positive rate of b-opsin (50 ng/ml instead of Wnt3a): 30.6(±6.2) %
- Positive rate of peripherin2 (50 ng/ml instead of Wnt3a): 0.5(±0.3) %
- Positive rate of recoverin (50 ng/ml instead of Wnt3a): 65.3(±2.7) %
- Positive rate of rhodopsin (50 ng/ml instead of Wnt3a): 51.8(±7.7) %
- Positive rate of peripherin2 (100 ng/ml instead of Wnt3a): 10.7(±2.9) %
- Positive rate of recoverin (100 ng/ml instead of Wnt3a): 61.8(±4.1) %
- Positive rate of rhodopsin (100 ng/ml instead of Wnt3a): 59.1(±5.4) %

B2: Wnt5A: recombinant Wnt5A (R&D Systems), Wnt signaling pathway activator used instead of Wnt3a (protein, UniProt P41221 62-380, looked up)
Protein Wnt-5a: IIGAQPLCSQLAGLSQGQKKLCHLYQDHMQYIGEGAKTGIKECQYQFRHRRWNCSTVDNTSVFGRVMQIGSRETAFTYAVSAAGVVNAMSRACREGELSTCGCSRAARPKDLPRDWLWGGCGDNIDYGYRFAKEFVDARERERIHAKGSYESARILMNLHNNEAGRRTVYNLADVACKCHGVSGSCSLKTCWLQLADFRKVGDALKEKYDSAAAMRLNSRGKLVQVNSRFNSPTTQDLVYIDPSPDYCVRNESTGSLGTQGRLCNKTSEGMDGCELMCCGRGYDQFKTVQTERCHCKFHWCCYVKCKKCTEIVDQFVCK
- Positive rate of Crx (50 ng/ml instead of Wnt3a): 67.3(±1.9) %
- Positive rate of Ki67 (50 ng/ml instead of Wnt3a): 41.3(±3.9) %
- Positive rate of Rom (50 ng/ml instead of Wnt3a): 58.8(±2.7) %
- Positive rate of b-opsin (50 ng/ml instead of Wnt3a): 55.0(±4.4) %
- Positive rate of peripherin2 (50 ng/ml instead of Wnt3a): 20.7(±0.8) %
- Positive rate of recoverin (50 ng/ml instead of Wnt3a): 61.0(±3.2) %
- Positive rate of rhodopsin (50 ng/ml instead of Wnt3a): 59.5(±2.0) %
- Positive rate of peripherin2 (100 ng/ml instead of Wnt3a): 14.2(±2.8) %
- Positive rate of recoverin (100 ng/ml instead of Wnt3a): 61.6(±2.5) %
- Positive rate of rhodopsin (100 ng/ml instead of Wnt3a): 56.1(±1.8) %

B3: Wnt1: recombinant Wnt1 (PeproTech), Wnt signaling pathway activator used instead of Wnt3a (protein, UniProt P04628 28-370, looked up)
Proto-oncogene Wnt-1: ANSSGRWWGIVNVASSTNLLTDSKSLQLVLEPSLQLLSRKQRRLIRQNPGILHSVSGGLQSAVRECKWQFRNRRWNCPTAPGPHLFGKIVNRGCRETAFIFAITSAGVTHSVARSCSEGSIESCTCDYRRRGPGGPDWHWGGCSDNIDFGRLFGREFVDSGEKGRDLRFLMNLHNNEAGRTTVFSEMRQECKCHGMSGSCTVRTCWMRLPTLRAVGDVLRDRFDGASRVLYGNRGSNRASRAELLRLEPEDPAHKPPSPHDLVYFEKSPNFCTYSGRLGTAGTAGRACNSSSPALDGCELLCCGRGHRTRTQRVTERCNCTFHWCCHVSCRNCTHTRVLHECL
- Positive rate of Crx (50 ng/ml instead of Wnt3a): 60.3(±1.3) %
- Positive rate of Ki67 (50 ng/ml instead of Wnt3a): 23.8(±1.2) %
- Positive rate of Rom (50 ng/ml instead of Wnt3a): 55.9(±2.9) %
- Positive rate of b-opsin (50 ng/ml instead of Wnt3a): 61.6(±6.8) %
- Positive rate of peripherin2 (50 ng/ml instead of Wnt3a): 3.8(±2.0) %
- Positive rate of recoverin (50 ng/ml instead of Wnt3a): 70.9(±1.8) %
- Positive rate of rhodopsin (50 ng/ml instead of Wnt3a): 66.2(±5.4) %

Source: US9200252B2, “Compositions for inducing differentiation into retinal cells from retinal progenitor cells or inducing proliferation of retinal cells comprising Wnt signaling pathway activators” (SNU R&DB Foundation, priority 2009, dated 2015)
